In assay [1] the test system is GHB. As to the kind of experiment: Biofilm test, seawater (SMOW), GHB. The assay is classed as cell-based, general heterotrophic bacteria. To be noted: after 75 ppm ai THPS dosed for 3 hours. The source says:
(§1) Biofilm Tests: Seawater (SMOW)

In assay [2] the test system is GHB. The assay can be described thus: Biofilm (sessile) test, freshwater (WHO). The class given is cell-based, general heterotrophic bacteria. To be noted: after 75 ppm ai THPS dosed for 3 hours. The source says: Biofilm (Sessile) Tests: Freshwater (WHO)
In assay [3] the test system is General Heterotrophic Bacteria. The assay can be described thus: Quantitative suspension test (planktonic bacteria) in WHO water. To be noted: 50 ppm ai THPS. The assay is classed as cell-based. From the text: Quantitative Suspension Test (Planktonic Bacteria) in WHO Water
Assay [4] concerns SRB. The assay can be described thus: Biofilm test, seawater (SMOW), SRB. The assay is classed as cell-based, sulphate reducing bacteria. To be noted: after 75 ppm ai THPS dosed for 3 hours.
From the text: as §1

Assay [5] has as its system GHB. As to the kind of experiment: Quantitative suspension test in de inking water, GHB. To be noted: 75 ppm ai THPS, 3 hour contact. The assay is classed as cell-based, general heterotrophic bacteria. The source says:
(§2) Quantitative Suspension Test in De Inking Water

In assay [6] the test system is SRB. As to the kind of experiment: Quantitative suspension test in de inking water, SRB. The assay is classed as cell-based, sulphate reducing bacteria. To be noted: 75 ppm ai THPS, 3 hour contact.
From the text: as §2

With “tetrakis(hydroxymethyl)phosphonium sulphate [Unformulated THPS]”, the results for the “Viable bacteria, GHB” value in the assay with GHB [1] and in the assay with GHB [2] were 1 × 10^2 and 1 × 10^5, respectively. Also, the “Log Reduction of General Heterotrophic Bacteria” value in assay [3] (1 hour contact) turned out to be 1; in assay [3] (3 hour contact) it was 5.8. In addition, in the assay on SRB [4], the “Viable bacteria, SRB” value is 1 × 10^4. Moreover, in the assay with GHB [5], the “Log reduction values, GHB” value was found to be 3.8. Moreover, in the assay on SRB [6], the “Log reduction values, SRB” value came to 3.

Values taken from US10178867B2, “Treating microbe contamination in water with THP salts and polymeric biopenetrants” (priority 2004, dated 2019).
